Columns and labels:
[1] = test system: APP/PS1 Alzheimer's disease (AD) mouse model; assay: Dendritic spine density analysis (Golgi-Cox staining) in APP/PS1 AD mice; assay type: in vivo; conditions: for spine deficits in CA3 pyramidal neurons and dentate gyrus granule cells: 15-month-old male AD mice
[2] = test system: APP/PS1 Alzheimer's disease (AD) mouse model; assay: Contextual fear learning in AD mice; assay type: in vivo; conditions: 15-month-old male AD mice; 3.0 mg/kg/2nd day for 1 month; FIG. 3
Description: The therapeutic effect of fingolimod (FTY720) as an example for an S1PR modulator for use in the treatment of Alzheimer's disease was tested in an established double transgenic amyloid precursor protein/presenilin-1 (APP/PS1) Alzheimer's disease (AD) mouse model that starts to develop amyloid-β (Aβ) pathology in the neocortex and hippocampus at two and four months of age, respectively. This AD mouse model is particularly close to human AD pathology. Impaired LTP (long-term potentiation) at Schaffer collateral CA1 synapses in acute slices ex vivo is observed at five months in these mice and becomes detectable with in vivo recordings beyond six months of age. Moreover, hippocampus-dependent learning deficits in this APP/PS1 mouse model become apparent five to eight months after birth. […]
The analyses of the animals comprises dendritic spine density analysis, LTP recordings, Morris water maze spatial learning and memory testing, contextual fear condition training and memory testing, immunohistological stainings of microgliosis and astrogliosis, biochemical brain-derived neurotrophic factor (BDNF) quantification and downstream TrkB receptor (a high affinity BDNF receptor) signaling, and statistical analysis.

[3] = CD11c+/CD14+ age/AD-associated microglia in the cortex of AD mice; assay type: in vivo, mouse; conditions: 15-month-old male AD mice; 1.0 mg/kg/2nd day for 1 month; FIG. 8
Description: (§1) The therapeutic effect of fingolimod (FTY720) as an example for an S1PR modulator for use in the treatment of Alzheimer's disease was tested in an established double transgenic amyloid precursor protein/presenilin-1 (APP/PS1) Alzheimer's disease (AD) mouse model that starts to develop amyloid-β (Aβ) pathology in the neocortex and hippocampus at two and four months of age, respectively. This AD mouse model is particularly close to human AD pathology. Impaired LTP (long-term potentiation) at Schaffer collateral CA1 synapses in acute slices ex vivo is observed at five months in these mice and becomes detectable with in vivo recordings beyond six months of age. Moreover, hippocampus-dependent learning deficits in this APP/PS1 mouse model become apparent five to eight months after birth.
(§2) Male APP/PS1 mice and littermate controls (wild-type healthy mice) were treated with intraperitoneal (i.p.) injections of fingolimod (FTY720; dissolved in 3% DMSO, 1.0 mg/kg or 3.0 mg/kg body weight) every second day for 1 to 2 months.
(§3) Substance A: Control, Substance B: FTY720 (1.0 mg/kg/2nd day) for 1 month.

[4] = test system: CD11c+/CD14+ age/AD-associated microglia; assay: as above; assay type: in vivo, mouse; conditions: 15-month-old male AD mice; 1.0 mg/kg/2nd day for 1 month; FIG. 9
Description: as §1, §2, §3

Row | SMILES | spine deficits in CA1 pyramidal neurons ([1]; aged (16-month-old) male AD mice, 1 mg/kg via drinking water for 1 month, starting at 15 months, FIG. 7) | spine deficits in CA1 pyramidal neurons ([1]; 6-7-month-old male AD mice, low dose 0.2 mg/kg/2nd day for 1 month, FIG. 6) | spine deficits in CA3 pyramidal neurons and dentate gyrus granule cells ([1]; 1.0 mg/kg/2nd day for 1 month, near and distant to plaques, FIG. 4, 1 mg/kg) | spine deficits in CA3 pyramidal neurons and dentate gyrus granule cells ([1]; 1.0 mg/kg/2nd day for 1 month, near and distant to plaques, FIG. 4, listed as FTY, 1 mg/kg) | spine deficits in CA3 pyramidal neurons and dentate gyrus granule cells ([1]; 3.0 mg/kg/2nd day for 1 month, FIG. 5) | number of synaptic spines versus same-aged healthy mice (wild-type littermates) ([1]; AD mice at 6-7 months and 15-16 months, short-term treatment) | spine deficits in dendrites close to plaques ([1]; APP/PS1 mice, CA1 secondary apical dendrites <50 μm from nearest plaque, FIGS. 1 and 2) | spine deficits in dendrites distant to plaques ([1]; APP/PS1 mice, CA1 secondary apical dendrites >50 μm from closest plaque, FIGS. 1 and 2) | spine deficits in CA1 pyramidal neurons ([1]; male 15-month-old AD model mice, FIG. 1) | deficit in contextual fear learning [2] | increased frequency of CD11c+/CD14+ age/AD-associated microglia in the cortex [3] | increased number of CD11c+/CD14+ age/AD-associated microglia in the cortex [4]
1 | CC(C)Oc1ccc(-c2nc(-c3cccc4c3CC[C@@H]4NCCO)no2)cc1C#N [Ozanimod] | very similar capacity to restore spine deficits | – | – | – | – | – | – | – | – | – | – | –
2 | CCCCCCCCc1ccc(CCC(N)(CO)CO)cc1 [Fingolimod] | – | restored spine deficits | restored spine deficits | completely rescued spine decrease near and distant to AB plaques | restored spine deficits | restored at both ages (6-7 months and 15-16 months) to the level of same-aged healthy mice | significant amelioration of spine deficits | complete rescue of spine deficits | restored spine deficits | restored the deficit | reduces the increased frequency | reduces the increased number
